In article PMC7495481, “Sequence specificity analysis of the SETD2 protein lysine methyltransferase and discovery of a SETD2 super-substrate” (Communications Biology, 2020):
Where “and” joins values, the source holds several entries; their conditions need not be identical. Equal entries are not always repeated.

Molecular target: T1, SETD2 (Homo sapiens, UniProt Q9BYW2)
T1 construct: SETD2 catalytic SET domain (amino acids 1347–1711, UniProt No: Q9BYW2); made in house; host or cells: E. coli
T1 sequence (Q9BYW2 1347-1711): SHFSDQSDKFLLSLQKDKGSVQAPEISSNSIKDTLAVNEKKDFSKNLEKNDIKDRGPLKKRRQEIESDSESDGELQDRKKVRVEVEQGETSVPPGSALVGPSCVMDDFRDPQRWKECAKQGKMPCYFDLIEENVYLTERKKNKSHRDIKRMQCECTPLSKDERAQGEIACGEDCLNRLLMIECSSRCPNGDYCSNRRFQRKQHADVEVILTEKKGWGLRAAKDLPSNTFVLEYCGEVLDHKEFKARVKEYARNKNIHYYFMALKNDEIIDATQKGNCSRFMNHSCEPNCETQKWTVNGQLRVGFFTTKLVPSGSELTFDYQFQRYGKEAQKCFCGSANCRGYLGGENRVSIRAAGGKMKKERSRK
Assay: Peptide SPOT array target lysine methylation of selected non-histone peptides (Fig. 3b)
Format: biochemical
Details: Exp1–Exp3, 3–6 µM SETD2, 0.76 µM AdoMet, 60 min, pH 9
Description: However, we could identify 166 possible targets, which contain partial matches to the substrate specificity profile. The possible methylation of these 166 putative substrates was investigated at the peptide level. For this, fifteen amino acid long peptides containing the sequence of the non-histone targets surrounding the predicted target lysine were synthesized on a membrane. The H3K36 (29–43) peptide (spots A1, I9), the super-substrate peptide (spots A3, I11) and the corresponding lysine to alanine mutation peptides (spot A2, I10, and A4, I12) were included as positive and negative controls (Fig. 3a, Supplementary Fig. 4 and Supplementary Table 2). The methylation reactions and the detection of the methylation signals were performed in duplicates as described above. We observed that all of the investigated peptides were more weakly methylated than the super-substrate peptide. […] In the next step, 20 of the peptides were selected for further investigation based on the methylation intensity and the known functions of the proteins to confirm the methylation at the predicted target site. The peptides were synthesized on another membrane, now including the target lysine to alanine mutation control peptides in each case. The methylation reactions and the detection of the signal were conducted as described above (Fig. 3b, Supplementary Fig. 5 and Supplementary Table 3).
Fig. 3 Identification of non-histone substrates of SETD2. a Candidate non-histone peptide substrates were identified in the human proteome based on the SETD2 super-substrate specificity profile. The peptides were synthesized on a peptide SPOT array (Supplementary Table 2) and methylated by SETD2. As controls, the H3K36, H3K36A, ssK36 and ssK36A peptides were included on spots A1–A4 and I9–I12. The autoradiography image is an example of the obtained results. […] The quantification of the data of two experiments is shown in Supplementary Fig. 4. b Analysis of target lysine methylation of selected non-histone substrate peptides. Peptide SPOT arrays were synthesized containing the non-histone peptide substrates identified in panel A in addition to the lysine to alanine mutations presented on the array as every second spot (Supplementary Table 3). As controls, the H3K36, H3K36A, ssK36, and ssK36A mutant peptides were included on spot A1–A4 and C5–C8. The autoradiography image is an example of the obtained results. The quantification of the data of three experiments is shown in Supplementary Fig. 5. Peptides selected for furhter analysis are highlighted by blue circles. c Protein methylation of FBN1 and confirmation of the target lysine methylation. Both wild type (WT) and mutant (K666R) FBN1 were purified and equal amounts were methylated by SETD2 (2 µM). […] The size of FBN1 is indicated by an asterisk.
Peptide arrays containing fifteen amino acid long peptides were synthesized using the SPOT synthesis method[48] with an Autospot peptide array synthesizer (Intavis AG, Köln, Germany). After synthesis, the obtained membranes were pre-incubated in methylation buffer (20 mM Tris/HCl pH 9, 0.01% Triton X-100, 10 mM DTT, 1.5 mM MgCl2) for 5 min on a shaker. Thereafter, the membranes were incubated in methylation buffer supplemented with 0.76 µM radioactively labeled AdoMet (PerkinElmer) and 3–6 µM SETD2 enzyme for 60 min on a shaker. After methylation, the membranes were washed 5 times for 5 min in wash buffer (100 mM NH4HCO3, 1% SDS) and incubated in amplify NAMP100V (GE Healthcare) for 5 min. This was followed by the exposure of the membranes to a hyperfilm^TM high performance autoradiography (GE Healthcare) film at −80 °C in the dark. The films were developed with an Optimax Typ TR machine after different exposue times. For quantification the signal intensities were measured with the Phoretix^TM software and analyzed with Microsoft Excel.

Row | Sequence | Relative methylation signal, Average
1 | AGARGYLATSLCVLG [DYSF K to A, target lysine to alanine control] | 0.01828
2 | AGARGYLKTSLCVLG [DYSF, Dysferlin peptide, target lysine 338] | 0.2902
3 | APRFGGVARPNRYRP [DS K to A, super-substrate K36A peptide, negative control] | 0.1136 and 0.1005
4 | ATFLGYFASGLKYKK [GELS K to A, target lysine to alanine control] | 0.4943
5 | ATFLGYFKSGLKYKK [GELS, Gelsolin peptide, target lysine 162] | 0.5433
6 | CRKLGGVAKSATFRS [TPD55 K to A, target lysine to alanine control] | 0.6652
7 | CRKLGGVKKSATFRS [TPD55, Tumor protein D55 peptide, target lysine 112] | 0.7056
8 | DDLYGAIAKLCCVQS [PIWL2 K to A, target lysine to alanine control] | 0.3265
9 | DDLYGAIKKLCCVQS [PIWL2, Piwi-like protein 2 peptide, target lysine 685] | 0.4271
10 | EMSIGAIAIALEISL [HMCN1 K to A, target lysine to alanine control] | 0.09371
11 | EMSIGAIKIALEISL [HMCN1, Hemicentin-1 peptide, target lysine 127] | 0.3311
12 | GAIIGFIAVGYKKLF [ATAT K to A, target lysine to alanine control] | 0.4571
13 | GAIIGFIKVGYKKLF [ATAT, Alpha-tubulin N-acetyltransferase 1 peptide, target lysine 98] | 0.7722
14 | GHPFGYLAASTALNC [INT6 K to A, target lysine to alanine control] | 0.2106
15 | GHPFGYLKASTALNC [INT6, Integrator complex subunit 6 peptide, target lysine 369] | 0.398
16 | KAPRGFLARVFKRKK [CENPW K to A, target lysine to alanine control] | 0.3763
17 | KAPRGFLKRVFKRKK [CENPW, Centromere protein W peptide, target lysine 23] | 0.677
18 | KDVIGAFAKVFACCS [O2T11 K to A, target lysine to alanine control] | 0.2642
19 | KDVIGAFKKVFACCS [O2T11, Olfactory receptor 2T11 peptide, target lysine 299] | 0.408

Row | Sequence | Relative methylation signal, Average
20 | KRIYGGFASTAGKHP [HABP2 K to A, target lysine to alanine control] | 0.2122
21 | KRIYGGFKSTAGKHP [HABP2] | 0.2413
22 | LHNRGALALTTGKCV [SIA8D K to A, target lysine to alanine control] | 0.2965
23 | LHNRGALKLTTGKCV [SIA8D, CMP-N-acetylneuraminate-poly-alpha-2,8-sialyltransferase peptide, target lysine 350] | 0.4366
24 | LICIGALAKLCNHPC [RA54B K to A, target lysine to alanine control] | 0.4423
25 | LICIGALKKLCNHPC [RA54B, DNA repair and recombination protein RAD54B peptide, target lysine 589] | 0.598
26 | LWKIGFFARPLKKKM [ITA1 K to A, target lysine to alanine control] | 0.403
27 | LWKIGFFKRPLKKKM [ITA1, Integrin alpha-1 peptide, target lysine 1170] | 0.4107
28 | RRGIGYLALICFLIP [ANKAR K to A, target lysine to alanine control] | 0.01267
29 | RRGIGYLKLICFLIP [ANKAR, Ankyrin and armadillo repeat-containing protein peptide, target lysine 317] | 0.4211
30 | STCYGGIAKGVCVRP [FBN2 K to A, target lysine to alanine control] | 0.3693
31 | STCYGGIKKGVCVRP [FBN2, Fibrillin-2 peptide, target lysine 711] | 0.6873
32 | STCYGGYARGQCIKP [FBN1 K to A, target lysine to alanine control] | 0.2279
33 | TPPLGGYAVTAKCFG [HDAC9 K to A, target lysine to alanine control] | 0.4627
34 | TPPLGGYKVTAKCFG [HDAC9, Histone deacetylase 9 peptide, target lysine 927] | 0.7696
35 | YCLIGGVAMTRFICK [DLEC1 K to A, target lysine to alanine control] | 0.4812
36 | YCLIGGVKMTRFICK [DLEC1, Deleted in lung and esophageal cancer protein 1 peptide, target lysine 494] | 0.8047
37 | YGPFGYIANPYNIFD [CAC1G K to A, target lysine to alanine control] | 0.03839
38 | YGPFGYIKNPYNIFD [CAC1G, Voltage-dependent T-type calcium channel subunit alpha-1G peptide, target lysine 804] | 0.9453
